The values that follow come from article PMC6431625 (Frontiers in Endocrinology, 2019).

One assay relates to FP. Further details: method as in PMID 10454504. As to conditions: cited from earlier work.
The target in another assay is T1, FP-RlucII (Homo sapiens, UniProt P43088).
T1 construct: SP (signal peptide) (N); expressed in transfected cells; host or cells: HEK293
Nature of the assay: Enhanced bystander BRET trafficking of FP-RlucII co-expressed with wildtype AT1R (Lyn-rGFP, rGFP-FYVE). Type of assay: cell-based. Particulars: co-expressed WT-AT1R; HEK293; PGF2α 1 μM; Ang II data not shown. For orientation: In BRET a luciferase serves as donor, and the signal depends on an acceptor being close.

The target of the next assay is T2, FP-Venus (Homo sapiens, UniProt P43088).
T2 construct: SP (signal peptide) (N); expressed in transfected cells; host or cells: HEK 293
The assay is classed as cell-based. As to conditions: ligand 1 μM.

A further assay deals with T3, AT1R[Δ325]-Venus (Homo sapiens, UniProt P30556+P43088).
T3 construct: SP (signal peptide) (N); expressed in transfected cells; host or cells: HEK 293
Type of assay: cell-based. Particulars: ligand 1 μM.

A further assay deals with T4, AT1R-Venus (Homo sapiens, UniProt P30556).
T4 construct: SP (signal peptide) (N); expressed in transfected cells; host or cells: HEK 293
T4 sequence (P30556 1-359): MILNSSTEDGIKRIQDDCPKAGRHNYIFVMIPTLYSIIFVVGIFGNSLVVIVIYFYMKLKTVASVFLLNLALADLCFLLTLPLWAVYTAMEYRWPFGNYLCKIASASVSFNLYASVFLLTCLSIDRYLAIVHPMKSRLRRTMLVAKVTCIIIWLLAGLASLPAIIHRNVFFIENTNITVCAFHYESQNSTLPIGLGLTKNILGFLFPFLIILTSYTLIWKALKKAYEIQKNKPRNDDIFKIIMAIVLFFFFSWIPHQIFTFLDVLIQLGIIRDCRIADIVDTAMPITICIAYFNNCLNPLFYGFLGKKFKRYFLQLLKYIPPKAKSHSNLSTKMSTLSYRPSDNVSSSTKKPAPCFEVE
Type of assay: cell-based. Particulars: ligand 1 μM.

The target of the next assay is T5, AT1R-RlucII (Homo sapiens, UniProt P30556+P43088).
T5 construct: SP (signal peptide) (N); expressed in transfected cells; host or cells: HEK293
Nature of the assay: Enhanced bystander BRET trafficking of AT1R-RlucII co-expressed with wildtype FP (Lyn-rGFP, rGFP-FYVE). Type of assay: cell-based. As to conditions: ligand 1 μM; co-expressed WT FP; HEK293.

For the next assay, the system named is OTR-Venus. Type of assay: cell-based, human. Particulars: ligand 1 μM.
For another assay, the target named is T6, AT1R-WT/FP-Venus dimer (Homo sapiens, UniProt P30556+P43088).
T6 construct: SP (signal peptide) (N); expressed in transfected cells; host or cells: HEK 293
The assay is classed as cell-based. Particulars: ligand 1 μM.

Assay [1] addresses T7, SP-FLAG-hAT1R-KPVAT-Venus (human, UniProt P30556 1-359).
T7 construct: human angiotensin II type 1 receptor, wild type; amplified from pcDNA3/SP-FLAG-hAT1R-WT; A signal peptide (SP); BRET acceptor; also called AT1R-Venus; angiotensin II type 1 receptor; not shown: Venus (after the linker KPVAT), C-terminal, kept
T7 sequence (looked up): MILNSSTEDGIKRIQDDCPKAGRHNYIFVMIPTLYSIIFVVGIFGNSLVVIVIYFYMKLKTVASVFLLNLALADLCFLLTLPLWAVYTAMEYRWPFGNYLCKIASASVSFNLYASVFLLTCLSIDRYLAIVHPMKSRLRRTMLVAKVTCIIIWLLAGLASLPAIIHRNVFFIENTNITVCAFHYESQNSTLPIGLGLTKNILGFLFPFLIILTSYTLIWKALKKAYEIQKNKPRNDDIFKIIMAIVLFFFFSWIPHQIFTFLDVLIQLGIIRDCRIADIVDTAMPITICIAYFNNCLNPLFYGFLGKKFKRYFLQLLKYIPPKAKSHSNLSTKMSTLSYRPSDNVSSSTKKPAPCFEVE
Nature of the assay: FRET or BRET; living HEK 293 parental cells, 37°C, Kreb's buffer pH 7.4; β-arrestin-RlucII donor, receptor-Venus acceptor co-expressed with the untagged partner receptor (AT1R-Venus, AT1R[Δ325]-Venus or OTR-Venus with FP-WT; FP-Venus with AT1R-WT); ΔBRET after PGF2α (1 μM); also other FP ligands, AT1R antagonists and endocytosis inhibitors. As to conditions: partners not purified.

Assay [2] addresses T7, SP-FLAG-hAT1R-KPVAT-Venus. Nature of the assay: FRET or BRET; living HEK 293 cells, 37°C, Kreb's buffer pH 7.4, coelenterazine h; β-arrestin-RlucII donor, receptor-Venus acceptor expressed alone (no partner receptor); ligand-induced ΔBRET after Ang II (1 μM), followed 90 min. As to conditions: partners not purified.

T3 sequence (P43088 whole entry, stated change not applied, one chain of several): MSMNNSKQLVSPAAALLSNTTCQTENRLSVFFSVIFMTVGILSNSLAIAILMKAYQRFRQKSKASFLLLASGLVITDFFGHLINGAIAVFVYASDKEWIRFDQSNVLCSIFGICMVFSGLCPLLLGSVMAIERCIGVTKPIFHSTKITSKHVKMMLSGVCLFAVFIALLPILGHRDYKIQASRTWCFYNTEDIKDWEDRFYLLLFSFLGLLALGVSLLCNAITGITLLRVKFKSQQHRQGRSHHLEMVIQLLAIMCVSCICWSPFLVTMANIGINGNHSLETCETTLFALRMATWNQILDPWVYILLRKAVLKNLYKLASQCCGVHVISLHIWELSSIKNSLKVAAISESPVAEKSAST
T2 sequence (P43088 whole entry): as the sequence (P43088 whole entry, stated change not applied, one chain of several) above
T1 sequence (P43088 whole entry, one chain of several): as the sequence (P43088 whole entry, stated change not applied, one chain of several) above
T6 sequence (P43088 whole entry, one chain of several): as the sequence (P43088 whole entry, stated change not applied, one chain of several) above
T5 sequence (P43088 whole entry, one chain of several): as the sequence (P43088 whole entry, stated change not applied, one chain of several) above

With `O=C(O)CCC/C=C\C[C@@H]1[C@@H](/C=C/[C@H](O)C2Cc3ccccc3C2)[C@@H](F)C[C@@H]1O` [AL-8810], the “Agonist properties at FP” value in the assay on FP is listed as “partial agonist properties”.

As for `CCCCC[C@H](O)/C=C/[C@@H]1[C@@H](C/C=C\CCCC(=O)O)[C@@H](O)C[C@H]1O` [PGF2α, prostaglandin F2α], on FP-RlucII, the “Trafficking of FP-RlucII (membrane Lyn-rGFP and endosome rGFP-FYVE bystander BRET)” value is “loss of membrane-localized receptor and a transient increase in an early endosomal population”. For the same molecule, the “Ligand-induced recruitment of β-arrestin 1/2-RlucII to FP-Venus alone” value at FP-Venus is given as “did not induce recruitment”. Besides, the “Ligand-induced recruitment of β-arrestin 1/2-RlucII to AT1R[Δ325]-Venus in the context of the dimer” value on AT1R[Δ325]-Venus is reported as “No responses were detected”. For the same molecule, on AT1R-Venus, the “Ligand-induced recruitment of β-arrestin 1/2-RlucII to AT1R-Venus alone” value is given as “no responses were detected”. Besides, the “Trafficking of AT1R-RlucII (membrane Lyn-rGFP and endosome rGFP-FYVE bystander BRET)” value on AT1R-RlucII was “time-dependent loss of the membrane signal and an increase in the endosomal population”. In addition, in the assay with OTR-Venus, the “Ligand-induced recruitment of β-arrestin 1/2-RlucII to OTR-Venus in the context of the dimer” value is “No responses were detected”. Also, the “Ligand-induced recruitment of β-arrestin 1/2-RlucII to the AT1R-WT/FP-Venus dimer” value at AT1R-WT/FP-Venus dimer is “did not induce recruitment”.

B1: β-arrestin 1-RlucII (natural protein, UniProt P49407 1-418, looked up)
chain: MGDKGTRVFKKASPNGKLTVYLGKRDFVDHIDLVDPVDGVVLVDPEYLKERRVYVTLTCAFRYGREDLDVLGLTFRKDLFVANVQSFPPAPEDKKPLTRLQERLIKKLGEHAYPFTFEIPPNLPCSVTLQPGPEDTGKACGVDYEVKAFCAENLEEKIHKRNSVRLVIRKVQYAPERPGPQPTAETTRQFLMSDKPLHLEASLDKEIYYHGEPISVNVHVTNNTNKTVKKIKISVRQYADICLFNTAQYKCPVAMEEADDTVAPSSTFCKVYTLTPFLANNREKRGLALDGKLKHEDTNLASSTLLREGANREILGIIVSYKVKVKLVVSRGGLLGDLASSDVAVELPFTLMHPKPKEEPPHREVPENETPVDTNLIELDTNDDDIVFEDFARQRLKGMKDDKEEEEDGTGSPQLNNR
notes: β-arrestin 1; BRET donor; also called βarr1-RlucII
As for B1, the figures for the “t1/2 of ligand-induced recruitment (BRET)” value in assay [1] and in assay [2] were 20 min and under 2 min, respectively.
